Read-outs that look alike come from different tables or passages of the source.
Key:
[1] = test system: test strain 923 pPvra-lux; assay: Secondary screen / synergy confirmation of Top 40, relative growth with oxacillin; type: cell-based, Staphylococcus aureus; conditions: Top 40 library, compound at maximum non-GI conc
Method: In the secondary screen each microtiter plate contained either cells in TSB alone (16 replicates), cells with oxacillin (2 μg/mL, 31 replicates), or cells with test compound and oxacillin (2 μg/mL, 49 wells). Each compound was assayed in four separate biological replicates.
Synergy Confirmation of “Top 40”. […]

[2] = test system: vraSR promoter (Pvra-lux reporter in strain 923); assay: Primary screen, relative luminescence (vraSR expression)
[3] = test system: test strain 923 pPvra-lux (USA300 MRSA); assay: Primary screen, relative growth in presence of oxacillin; conditions: compound 10 μM with oxacillin 2 μg/mL, absorbance 24 h, <0.50 = dead cells = hit
[4] = test system: vraSR promoter (Pvra-lux reporter in strain 923); type: cell-based, Staphylococcus aureus; conditions: for RL Ox avg: Top 40 library, with oxacillin, compound at maximum non-GI conc; for vraSR repressing synergist: overall class from syn and rep
Method: In the secondary screen each microtiter plate contained either cells in TSB alone (16 replicates), cells with oxacillin (2 μg/mL, 31 replicates), or cells with test compound and oxacillin (2 μg/mL, 49 wells). Each compound was assayed in four separate biological replicates. […]

[5] = test system: test strain (923 pPvra-lux); assay: Growth inhibition by compound alone (maximum non-growth-inhibitory concentration); type: cell-based, Staphylococcus aureus; conditions: compound alone; maximum concentration where it did NOT inhibit growth
[6] = primary screen, compound 10 μM with oxacillin 2 μg/mL, <0.50 = vraSR repressed = hit

Row | Compound | RG Ox avg [1] | RL avg (relative luminescence) [2, 6] | RG avg (relative growth) [3] | RL Ox avg [4] | vraSR repressing synergist [4] | maximum non-GI conc [5] [µg/mL] | RL avg (relative luminescence) [2]
1 | Cc1ccc(Nc2nc(N3CCN(Cc4ccccc4)CC3)nc3nccnc23)cc1C [F2359-0308] | 0.01 | 0.07 | 0.22 | 0.01 | 1. confirmed | 400 | –
2 | CN1CCN(c2nc(Nc3ccc(SC(F)F)cc3)c3cnn(-c4ccccc4)c3n2)CC1 [F2090-0579] | 0.30 | 0.04 | 0.00 | 0.11 | 1. confirmed | 400 | –
3 | O=C(CCCSc1ccc(Cl)cc1)Nc1nc(-c2ccccn2)cs1 [F2813-0883] | 1.03 | −0.01 | −0.03 | 1.28 | 3. no effect | 40 | –
4 | O=C(Nc1cccc(C(F)(F)F)c1)N1CCN(c2ccc3nncn3n2)CC1 [F5123-0084] | 1.08 | −0.08 | 0.02 | 0.67 | 3. no effect | 40 | –
5 | Cc1ccc(S(=O)(=O)Nc2ccccc2C(=O)Nc2nc3c(C)ccc(Cl)c3s2)cc1 [F1813-0711] | 0.85 | – | −0.02 | 0.43 | 2. possible | 400 | −0.02
6 | CC1CC1c1ccc(CCC(=O)Nc2ccc(Cl)c(Cl)c2)o1 (stereo not shown) [F1118-0378] | 1.00 | 0.42 | 0.01 | 0.65 | 3. no effect | 40 | –
7 | OC(c1ccccc1)c1nc2ccccc2n1Cc1ccc(Cl)c(Cl)c1 (stereo not shown) [F3068-0037] | −0.01 | 0.05 | −0.02 | 0.11 | 1. confirmed | 400 | –
8 | O=C(Nc1ccc(OC(F)(F)F)cc1)N1CCN(c2cc(N3CCCC3)ncn2)CC1 [F5669-0378] | 1.00 | −0.06 | −0.02 | 0.71 | 3. no effect | 40 | –
9 | O=C(Nc1ccc2c(c1)OCO2)Nc1nc(-c2ccccn2)cs1 [F5772-8284] | 0.37 | −0.01 | 0.37 | 0.52 | 2. possible | 400 | –
10 | COc1cc(-c2nnc(NC(=O)c3ccc(S(=O)(=O)N4CCc5ccccc5C4)cc3)o2)cc(OC)c1OC [F0559-321] | – | −0.09 | −0.03 | – | – | – | –
11 | O=C(Nc1nnc(-c2ccc(Br)cc2)o1)c1ccc2ncsc2c1 [F2518-558] | – | −0.08 | −0.02 | – | – | – | –
12 | O=C(Nc1nnc(-c2ccc(Br)cc2)o1)c1cc(Cl)sc1Cl [F2518-504] | – | 0.00 | 0.01 | – | – | – | –
13 | COc1ccc(-c2nnc(NC(=O)c3cc(Cl)sc3Cl)o2)cc1OC [F2767-204] | – | −0.09 | −0.02 | – | – | – | –
14 | CC1CN(S(=O)(=O)c2ccc(C(=O)Nc3nnc(-c4ccc(F)cc4)o3)cc2)CC(C)O1 (stereo not shown) [F0559-107] | – | −0.06 | −0.05 | – | – | – | –
15 | O=C(Nc1nnc(-c2ccc(Br)cc2)o1)c1ccc(Oc2ccccc2)cc1 [F2518-534] | – | 0.04 | 0.01 | – | – | – | –
16 | COc1ccccc1-c1nnc(NC(=O)c2ccc(Cc3ccccc3)cc2)o1 [F1374-276] | – | 0.39 | 0.01 | – | – | – | –
17 | C=CCN(CC=C)S(=O)(=O)c1ccc(C(=O)Nc2nnc(-c3cc(OC)c(OC)c(OC)c3)o2)cc1 [F0559-279] | – | −0.09 | 0.40 | – | – | – | –
18 | CCN(c1ccccc1)S(=O)(=O)c1ccc(C(=O)Nc2nnc(-c3ccccc3SC)o2)cc1 [F2645-115] | – | 0.45 | 0.13 | – | – | – | –
19 | Cc1ccc(C)c(-c2nnc(NC(=O)c3ccc4c(c3)CCCC4)o2)c1 [F2518-373] | – | −0.05 | 0.05 | – | – | – | –
20 | C=CCN(CC=C)S(=O)(=O)c1ccc(C(=O)Nc2nnc(-c3ccc(OC)cc3)o2)cc1 [F0559-189] | – | −0.08 | −0.05 | – | – | – | –
21 | Cc1ccc(-c2nnc(NC(=O)c3nc4ccccc4s3)o2)c(C)c1 [F2518-183] | – | −0.04 | 0.00 | – | – | – | –
22 | O=C(Nc1nnc(-c2ccco2)o1)c1cc(-c2ccccc2)nc2ccccc12 [F0608-448] | – | −0.04 | 0.19 | – | – | – | –
23 | O=C(Nc1nnc(-c2ccc3c(c2)CCCC3)o1)c1nc2ccccc2s1 [F0608-570] | – | −0.07 | −0.05 | – | – | – | –
24 | O=C(Nc1nnc(-c2cc3ccccc3o2)o1)c1cccc(Cl)c1 [F2273-385] | – | 0.16 | 0.28 | – | – | – | –

Row | Compound | RG Ox avg [1] | RL avg (relative luminescence) [2, 6] | RG avg (relative growth) [3] | RL Ox avg [4] | vraSR repressing synergist [4] | maximum non-GI conc [5] [µg/mL] | RL avg (relative luminescence) [2]
25 | COc1cccc(-c2nnc(NC(=O)c3cccc(C(F)(F)F)c3)o2)c1 [F1374-352] | – | 0.41 | 0.03 | – | – | – | –
26 | COc1cc(-c2nnc(NC(=O)c3ccc(S(=O)(=O)N4CCCc5ccccc54)cc3)o2)cc(OC)c1OC [F0559-320] | – | −0.08 | 0.24 | – | – | – | –
27 | C=CCN(CC=C)S(=O)(=O)c1ccc(C(=O)Nc2nnc(-c3ccccc3OC)o2)cc1 [F0559-129] | – | −0.07 | −0.08 | – | – | – | –
28 | O=C(Nc1nnc(-c2ccc(F)cc2)o1)c1sc2ccccc2c1Cl [F1374-148] | – | 0.36 | 0.04 | – | – | – | –
29 | O=C(Nc1nnc(-c2ccc(Br)cc2)o1)c1cc(Cl)ccc1Cl [F2518-481] | – | −0.05 | 0.00 | – | – | – | –
30 | O=C(Nc1nnc(-c2ccc3c(c2)CCCC3)o1)c1cccc(Cl)c1 [F0608-659] | – | −0.08 | −0.05 | – | – | – | –
31 | Cc1ccc(C)c(-c2nnc(NC(=O)c3cccc(Br)c3)o2)c1 [F2518-303] | – | −0.02 | 0.00 | – | – | – | –
32 | O=C(Nc1nnc(-c2cc(Cl)ccc2Cl)o1)c1nc2ccccc2s1 [F2518-39] | – | −0.07 | −0.01 | – | – | – | –
33 | O=C(Nc1nnc(-c2ccc3c(c2)CCCC3)o1)c1ccc(S(=O)(=O)N2CCOCC2)cc1 [F0608-560] | – | −0.07 | −0.07 | – | – | – | –
34 | CC1CCCCN1S(=O)(=O)c1ccc(C(=O)Nc2nnc(C3COc4ccccc4O3)o2)cc1 (stereo not shown) [F0608-741] | – | −0.04 | −0.02 | – | – | – | –
35 | Cc1ccc(-c2nnc(NC(=O)c3ccc(S(=O)(=O)N4CCCCC4)cc3)o2)cc1C [F2767-26] | – | −0.05 | 0.03 | – | – | – | –
36 | Cc1ccc(Cc2nnc(NC(=O)c3ccc(S(=O)(=O)N(C)c4ccccc4)cc3)o2)c(C)c1 [F2368-431] | – | −0.06 | −0.02 | – | – | – | –
37 | COc1ccccc1-c1nnc(NC(=O)c2sc3ccccc3c2Cl)o1 [F1374-253] | – | 0.32 | 0.04 | – | – | – | –
38 | COc1cccc2cc(C(=O)Nc3nnc(-c4cc(Cl)sc4Cl)o3)oc12 [F1374-2680] | – | 0.42 | 0.00 | – | – | – | –
39 | COc1ccccc1-c1nnc(NC(=O)c2cc(-c3cccs3)nc3ccccc23)o1 [F1374-255] | – | 0.36 | 0.00 | – | – | – | –
40 | CC1CC(C)CN(S(=O)(=O)c2ccc(C(=O)Nc3nnc(-c4ccc(Cl)s4)o3)cc2)C1 (stereo not shown) [F0559-376] | – | −0.02 | −0.08 | – | – | – | –
41 | O=C(Nc1nnc(-c2ccco2)o1)c1ccc(S(=O)(=O)N2CCCc3ccccc32)cc1 [F0608-447] | – | −0.02 | −0.05 | – | – | – | –
42 | CCOc1cc(-c2nnc(NC(=O)C(c3ccccc3)c3ccccc3)o2)cc(OCC)c1OCC [F2517-165] | – | −0.07 | 0.31 | – | – | – | –
43 | COc1ccc(-c2nnc(NC(=O)c3cccc(C(F)(F)F)c3)o2)c(OC)c1 [F1374-562] | – | 0.38 | 0.02 | – | – | – | –
44 | O=C(Nc1nnc(-c2ccc(Cl)s2)o1)c1ccc(Cl)cc1 [F1374-1055] | – | 0.50 | 0.02 | – | – | – | –
45 | O=C(Nc1nnc(-c2ccc3c(c2)CCCC3)o1)c1cc(Cl)sc1Cl [F0608-668] | – | −0.06 | 0.02 | – | – | – | –
46 | CCOc1ccc(-c2nnc(NC(=O)c3c(-c4ccccc4Cl)noc3C)o2)cc1 [F2517-329] | – | −0.11 | −0.02 | – | – | – | –
47 | CC1CC(C)CN(S(=O)(=O)c2ccc(C(=O)Nc3nnc(-c4ccc(F)cc4)o3)cc2)C1 (stereo not shown) [F0559-106] | – | −0.07 | −0.07 | – | – | – | –

Reference: US9675592B2, “Methods and compositions for bacteria infections” (priority 2013, dated 2017)
